For 20 molecules, IC50, Ki and inhibition results are on record in ChEMBL document CHEMBL1125455, “Novel anthraquinone inhibitors of human leukocyte elastase and cathepsin G” (J Med Chem, 1992).

The target in assay [1] is T1, Cathepsin G (Homo sapiens, UniProt P08311).
T1 sequence (P08311 whole entry): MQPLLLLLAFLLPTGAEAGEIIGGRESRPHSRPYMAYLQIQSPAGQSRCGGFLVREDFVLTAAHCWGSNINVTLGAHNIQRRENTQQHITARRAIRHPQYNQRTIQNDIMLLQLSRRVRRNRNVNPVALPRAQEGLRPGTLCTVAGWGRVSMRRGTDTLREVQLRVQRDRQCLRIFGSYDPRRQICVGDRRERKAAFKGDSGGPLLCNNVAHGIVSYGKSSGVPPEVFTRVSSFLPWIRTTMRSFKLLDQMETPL
The assay can be described thus: Compound was tested for the enzyme inhibitory activity against Cathepsin G (CatG); NI = no inhibition.

Assay [2] addresses T2, Neutrophil elastase (Homo sapiens, UniProt P08246).
T2 sequence (P08246 whole entry): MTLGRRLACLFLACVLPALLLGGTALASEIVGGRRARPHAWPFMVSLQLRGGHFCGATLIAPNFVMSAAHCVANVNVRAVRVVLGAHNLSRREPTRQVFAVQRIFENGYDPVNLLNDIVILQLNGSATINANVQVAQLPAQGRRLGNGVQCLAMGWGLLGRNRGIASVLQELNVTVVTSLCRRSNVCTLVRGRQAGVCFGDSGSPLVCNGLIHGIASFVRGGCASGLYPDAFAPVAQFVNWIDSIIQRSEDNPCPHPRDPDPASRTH
The assay can be described thus: Compound was tested for the enzyme inhibitory activity against Human Leukocyte Elastase (HLE); NI = no inhibition.

Assay [3] addresses T2, Neutrophil elastase. The assay can be described thus: In vitro inhibition of human leukocyte elastase.
For assay [4], the target named is T1, Cathepsin G. The assay can be described thus: Inhibition of Cathepsin G (CatG).
Assay [5] deals with T2, Neutrophil elastase. The assay can be described thus: HLE-inhibitor (Human Leukocyte Elastase) dissociation constant determined by using Dixon Plot.
Assay [6] has as its target T1, Cathepsin G. The assay can be described thus: Compound was tested for the enzyme inhibitory activity against Cathepsin G; NI = no inhibition.
In assay [7] the target is T2, Neutrophil elastase. The assay can be described thus: Compound was tested for the enzyme inhibitory activity against Human Leukocyte elastase.
For assay [8], the target named is T3, Chymotrypsin-like elastase family member 2A (Sus scrofa) (UniProt P08419).
T3 sequence (whole entry): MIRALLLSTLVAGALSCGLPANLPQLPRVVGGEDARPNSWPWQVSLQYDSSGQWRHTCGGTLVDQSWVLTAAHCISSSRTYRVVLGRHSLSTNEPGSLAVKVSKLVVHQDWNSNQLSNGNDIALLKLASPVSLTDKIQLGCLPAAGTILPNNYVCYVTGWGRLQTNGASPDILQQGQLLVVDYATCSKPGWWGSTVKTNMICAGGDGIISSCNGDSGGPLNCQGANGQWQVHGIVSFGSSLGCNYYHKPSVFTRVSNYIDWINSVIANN
The assay can be described thus: Inhibitory activity against Porcine Pancreatic Elastase (PPE) at 61 uM concentration; NI = no inhibition.

The target of assay [9] is T4, Cathepsin G (Homo sapiens) (UniProt P08311).
T4 sequence (whole entry): T1 sequence (P08311 whole entry)
The assay can be described thus: Inhibitory activity against Cathepsin G (CatG) at 61 uM concentration; NI = no inhibition.

The target in assay [10] is Chymotrypsinogen A (Bos taurus) (UniProt P00766). The assay can be described thus: Inhibitory activity against Chymotrypsinogen at 61 uM concentration.
The target of assay [11] is T5, Neutrophil elastase (Homo sapiens) (UniProt P08246).
T5 sequence (whole entry): T2 sequence (P08246 whole entry)
The assay can be described thus: Inhibitory activity against Human Leukocyte Elastase (HLE) at 61 uM concentration.

In assay [12] the target is T2, Neutrophil elastase. The assay can be described thus: Compound was tested for the enzyme inhibitory activity against Human Leukocyte Elastase (HLE).
The target of assay [13] is T5, Neutrophil elastase (Homo sapiens). The assay can be described thus: Inhibitory activity against Human Leukocyte Elastase (HLE) at 59 uM concentration.
In assay [14] the target is T3, Chymotrypsin-like elastase family member 2A (Sus scrofa). The assay can be described thus: Inhibitory activity against Porcine Pancreatic Elastase (PPE) at 59 uM concentration; NI = no inhibition.

pIC50, pKi: −log10 of the molar value. Active and inactive are the calls of the source. The rule behind the calls is not given here.

With `COc1cccc2c1C(=O)c1c(ccc(Cc3ccccc3)c1OC(C)=O)C2=O`, the IC50 result in assay [1] and in assay [2] was “Not Active” throughout.
In general, pIC50 refers to the negative decadic logarithm of the IC50, by convention in mol/L. `CCCCCCc1ccc2c(c1O)C(=O)c1c(O)cccc1C2=O`: the negative logarithm of the IC50 (pIC50) was 5.38 in assay [3] and 4.55 in [4].
Usually pKi stands for the negative decadic logarithm of the Ki, by convention in mol/L. Low readings indicate a high Ki, high ones a low Ki. In assay [3], `CCCCCCc1ccc2c(c1OC(=O)OCCCC)C(=O)c1c(OC(=O)OCCCC)cccc1C2=O` had a negative logarithm of the IC50 (pIC50) of 5.68. In [5], this molecule gave a pKi of 6.37.
Take `CCCCCc1ccc2c(c1O)C(=O)c1c(O)cccc1C2=O`: the pIC50 in [3] was 5.41.
`COc1cccc2c1C(=O)c1c(ccc(C)c1O)C2=O` showed a pIC50 in assay [3] of 4.72. For the same molecule, the IC50 result in [1] is “Not Active”.
On to `COc1c(C)ccc2c1C(=O)c1ccccc1C2=O`, for which the IC50 result in assay [6] is given as “Not Active”. Besides, the negative logarithm of the IC50 (pIC50) in assay [7] is less than 4.22.
In assay [3], `Cc1ccc2c(c1)C(=O)c1ccccc1C2=O` [TECTOQUINONE] had a negative logarithm of the IC50 (pIC50) of 4.41. In addition, the IC50 result in [1] is “Not Active”.
Consider `CC(C)Cc1ccc2c(c1O)C(=O)c1c(O)cccc1C2=O`, for which the pIC50 in assay [3] is 5.10.
`COc1cccc2c1C(=O)c1c(ccc(Cc3ccccc3)c1O)C2=O`: the pIC50 in assay [3] is 5.17. The IC50 entry in assay [1] is reported as “No inhibition”.
As for `C=CCc1ccc2c(c1O)C(=O)c1c(OC)cccc1C2=O`, the pIC50 was 4.96 in assay [3] and less than 4.22 in [4].
Regarding `CCCCOC(=O)Oc1cccc2c1C(=O)c1c(OC(=O)OCCCC)cc(C)cc1C2=O`, in [3], the pIC50 is 5.29. For the same molecule, in assay [5], the negative-log Ki (pKi) was 5.72.
As to `COc1cccc2c1C(=O)c1c(ccc(CC(C)C)c1O)C2=O`, the negative logarithm of the IC50 (pIC50) in [3] is 4.96. Moreover, the IC50 entry in assay [1] is listed as “No inhibition”.
What is called inhibition is the share of the control response that was lost under treatment. In the case of `CC(=O)OCc1cc(OC(C)=O)c2c(c1)C(=O)c1cccc(OC(C)=O)c1C2=O`, the inhibition result in assay [8] and in assay [9] was “inactive” throughout. Besides, the inhibition in [10] came out at 3%; in [11] it was 30%.
`CCCCOC(=O)Oc1cc(OC(=O)OCCCC)c2c(c1)C(=O)c1cc(C)cc(OC(=O)OCCCC)c1C2=O` gave a negative logarithm of the IC50 (pIC50) in assay [3] of 5.89.
`COc1cccc2c1C(=O)c1c(ccc(CC(C)C)c1OC(C)=O)C2=O`: the IC50 result in assay [1] is given as “No inhibition”.
On to `CCCCOC(=O)Oc1cc(C)cc2c1C(=O)c1c(OC(=O)OCCCC)cc(OCCC)cc1C2=O`, for which the pKi in assay [5] was 6.82. Besides, in assay [12], the pIC50 is 5.74.
For the molecule `CC(=O)Oc1cccc2c1C(=O)c1c(OC(C)=O)cc(CBr)cc1C2=O`, the inhibition in assay [13] turned out to be 33%. Further, in [14], the inhibition entry is “inactive”.
Turning to `C=CCc1ccc2c(c1OC)C(=O)c1c(OC)cccc1C2=O`, in [4], the negative-log IC50 (pIC50) is less than 4.22. The IC50 result in assay [2] is listed as “Not Active”.
With `Cc1ccc2c(c1O)C(=O)c1c(O)cccc1C2=O`, the pIC50 in assay [3] is 5.00.
As to `CCCCOC(=O)Oc1cccc2c1C(=O)c1c(OC(=O)OCCCC)cccc1C2=O`, the negative logarithm of the IC50 (pIC50) in [3] was 4.92. The pKi in assay [5] is 5.12.
